Measurements taken from patent US20130237582A1, “PHARMACEUTICAL COMBINATION OF PACLITAXEL AND A CDK INHIBITOR” (Piramal Enterprises Limited, priority 2010, published 2013).
“Also recorded” adds a separate entry of the source.

How the values were obtained:
[1] = tested on: VEGF; assay: VEGF reporter gene based assay (M-9 cells); type: cell-based; details: Homo sapiens, hypoxia, 20-24 h, read-out: IC50 for VEGF inhibition under hypoxia
Protocol: A cell line M-9 is MDA-MB-231 which is stably co-transfected with the VEGF-Luc construct (VEGF promoter in pGL2-basic) and a plasmid containing the Geneticin (G418) resistance gene which forms VEGF promoter reporter gene. The expression of the reporter gene in the clone cells, as measured by luciferase activity, is stable.
The effect of Compound A on VEGF inhibition was evaluated using the VEGF reporter gene based assay.
Lysis Assay Buffer (1×) • Tris-Phosphate (pH 7.8)-125 mM, DTT-10 mM, EDTA-10 mM, Glycerol-50% and Triton X-100-5%.
Luciferase Assay Reagent (LAR) • Luciferase Assay Buffer-8 mL, 530 μM ATP-530 μL, 270 μM CoA-1 mL and 170 μM Luciferin-1 mL.
Luciferase Assay Buffer (LAB) (1×) • Tricin (pH 7.8)-20 mM, Magnesia Alba-1.07 mM, MgSO4-2.67 mM, EDTA-0.1 mM and DTT-33.3 mM. ATP Stock made in LAB=5.85 mg/mL CoA Stock made in LAB=2.1 mg/mL Luciferin Stock made in LAB=1.5 mg/mL
1. M-9 cells were sub-cultured and maintained in RPMI-1640 Medium with supplement of 10% FBS, and 4 μL/ml G418 (Stock 100 mg/mL) in a humidified incubator at 37° C. and 5% CO2. 2. Cells were seeded at density of 3×10^4 cells/well in 180 μL volume in tissue culture grade 96 well white plates as well as transparent plates and allowed to adhere for 16-20 h in humidified CO2 incubator (5% CO2) at 37° C. A total of two sets of plates were made, as the incubation conditions are different. 3. Compound A, Sutent® and BSI-201 were diluted in medium serially so that final desired concentrations are achieved in the respective wells. (not more than 0.5% concentration of DMSO in the wells). 4. INCUBATION CONDITIONS: One set of plates are incubated under ambient atmospheric condition with 5% CO2, referred hereafter as NORMOXIC/OXIC PLATE. […] To all the wells, 100 μL Luciferase Assay Reagent (LAR) are added, plates are immediately read for Luminescence on TOPCOUNT™ (Packard, USA). The percentage inhibitions and Inhibitory Concentration (IC50) or Effective Concentration (EC50) are calculated in comparison with Control (untreated) values. […]

[2] = target: T1, PARP (Homo sapiens, UniProt P09874); assay: PARP enzyme activity measured by PAR polymers (Western blot), MDA-MB-468; type: cell-based; details: 1.5 μM and 5 μM, 24 h, hydrochloride
T1 construct: endogenous in cells; host or cells: MDA-MB-231; MDA-MB-468
Protocol: To study PARP enzyme activity, PAR polymer formation was measured. MDA-MB-231 and MDA-MB-468 cells were seeded in RPMI 1460 medium with 10% FCS in […] tissue culture flask and incubated for 24 h. These cells were treated at 1.5 μM and 5 μM of Compound A for 24 h. The cells were harvested (trypsinised) and lysed using lysis buffer. Western blotting (Molecular Cancer Therapeutics, 2007, 6, 918-925) was done with specific antibody to PAR.
Correlation of PARP activity and cell cycle proteins cyclin D1, total Rb and pRb 780 were studied in two TNBC cell lines viz. MDA-MB-468 and MDA-MB-231. MDA-MB-231 and MDA-MB-468 cells were seeded in RPMI 1460 medium with 10% FCS in […] tissue culture flask and incubated for 24 h. These cells were treated at 1.5 μM and 5 μM Compound A for 24 h. The cells were harvested (trypsinised) and lysed using lysis buffer. Western blotting was carried out (Molecular Cancer […], 2007, 6, 918-925) using specific antibody to PAR, PARP, cyclin D1, CDK4 and pRb Ser 780.

[3] = tested on: HUVEC; assay: Endothelial cell tube formation assay; type: cell-based, human
Excerpt: The Tube Formation Assay represents a simple but powerful model for studying inhibition and induction of angiogenesis. The assay relies on the endothelial cells' ability to form distinct blood-vessel like tubules in an extracellular matrix (BD Matrigel™ Matrix, USA) where they can subsequently be visualized by microscopy. It enables analysis of angiogenic tubules in a 3 dimensional matrix that better resembles the native physiological environment.
Confluent HUVEC (Human umbilical vein endothelial cells) were cultured with above mentioned endothelial medium to desired confluence. For HUVEC 60-80% confluence is recommended.
Endothelial cell suspensions were prepared by trypsinizing the cell monolayers and resuspending the cells in culture medium with 5-10% serum. (0.5−1)×10^6 cells per 180 μL of cell suspension were added (per well of 24 well plate) to the medium (BD Matrigel Matrix) which, had been thawed at 4° C. This suspension was then added to the plates and kept for incubation. The cells were allowed to adhere for 2-3 h and then Compound A (1 μM), Rotenone (1 μM) (Sigma-Aldrich, USA) and Topotecan (3 μM) (Sigma-Aldrich, USA) (20 μL of 10× stocks) were added to the respective wells. DMSO was used as the control. After 24-48 h of incubation the cells were observed under a phase contrast microscope (Zeiss Axio Observer, Germany) for tube formation and angiogenesis.

[4] = tested on: Bcl-2; assay: Western blot analysis in MDA-MB-231 cells; type: cell-based, human; details: 1.5 and 4.5 μM, 6, 24 and 30 h
Protocol: The Western blot assay was carried out according to the procedure disclosed in Molecular Cancer Therapeutics, 2007, 6, 918-925 with some modifications.
MCF-7 and MDA-MB-231 cells were seeded in RPMI 1460 medium with 10% FCS in […] tissue culture flask and incubated for 24 h. The cells were treated with Compound A at 1.5 and 4.5 μM. At various time points, i.e. 6, 24 and 30 h the cells were harvested or trypsinized and lysed using lysis buffer (Sigma Aldrich, USA). Protein content was estimated. Lysate was applied to Sodium Dodecyl Sulphate-Polyacrylamide Gel Electrophoresis (SDS-PAGE) followed by western blotting (Molecular Cancer Therapeutics, 2007, 6, 918-925). Western blotting was done using specific antibodies to Bcl-2 and actin. The results are depicted in FIG. 4.

T1 sequence (P09874 2-1014 limits assumed): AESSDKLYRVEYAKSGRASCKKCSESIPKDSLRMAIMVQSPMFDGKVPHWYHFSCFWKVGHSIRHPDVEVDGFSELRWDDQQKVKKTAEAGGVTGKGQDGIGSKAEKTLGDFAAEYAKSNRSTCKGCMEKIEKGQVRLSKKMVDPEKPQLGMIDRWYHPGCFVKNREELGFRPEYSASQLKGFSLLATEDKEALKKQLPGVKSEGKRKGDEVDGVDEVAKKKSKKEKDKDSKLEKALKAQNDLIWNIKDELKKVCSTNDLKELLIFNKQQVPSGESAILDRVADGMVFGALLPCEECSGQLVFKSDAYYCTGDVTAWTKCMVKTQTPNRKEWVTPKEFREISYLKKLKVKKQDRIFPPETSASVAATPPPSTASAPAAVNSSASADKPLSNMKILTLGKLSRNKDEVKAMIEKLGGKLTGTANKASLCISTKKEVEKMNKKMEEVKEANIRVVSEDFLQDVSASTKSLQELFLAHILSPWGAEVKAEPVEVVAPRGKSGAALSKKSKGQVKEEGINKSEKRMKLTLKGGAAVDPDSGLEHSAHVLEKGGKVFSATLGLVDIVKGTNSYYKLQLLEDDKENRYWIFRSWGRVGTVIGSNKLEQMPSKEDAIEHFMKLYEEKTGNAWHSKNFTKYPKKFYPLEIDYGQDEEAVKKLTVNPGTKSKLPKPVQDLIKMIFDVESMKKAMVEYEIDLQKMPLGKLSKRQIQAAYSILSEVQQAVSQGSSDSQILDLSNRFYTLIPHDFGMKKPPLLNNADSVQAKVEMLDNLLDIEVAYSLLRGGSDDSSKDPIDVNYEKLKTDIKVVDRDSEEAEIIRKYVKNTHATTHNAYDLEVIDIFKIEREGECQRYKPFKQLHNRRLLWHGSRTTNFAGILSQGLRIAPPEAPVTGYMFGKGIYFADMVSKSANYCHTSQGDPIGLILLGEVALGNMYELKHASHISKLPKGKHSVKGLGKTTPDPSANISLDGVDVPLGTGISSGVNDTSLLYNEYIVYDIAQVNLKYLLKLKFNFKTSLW

IC50 [1]: 0.31 µM
SMILES: CN1CC[C@@H](c2c(O)cc(O)c3c(=O)cc(-c4ccccc4Cl)oc23)[C@@H]1CO.Cl [Compound A, (+)-trans-2-(2-Chloro-phenyl)-5,7-dihydroxy-8-(2-hydroxymethyl-1-methyl-pyrrolidin-3-yl)-chromen-4-one hydrochloride]
PARP enzyme activity (PAR polymer formation) [2]: the formation of PAR polymers is not inhibited; also recorded: no change in the PAR polymer formation | tube formation inhibition compared with standards ([3]; 1 μM vs Rotenone 1 μM and Topotecan 3 μM): comparable to Rotenone (standard VEGF inhibitor) and better than Topotecan | endothelial tube formation ([3]; HUVEC in Matrigel, 1 μM, 24-48 h): effectively inhibited endothelial tube formation | expression of antiapoptotic protein Bcl-2 [4]: significant down regulation was observed at 30 h
